# Test results as given in ChEMBL document CHEMBL5214926, “Recent contribution of medicinally active 2-aminothiophenes: A privileged scaffold for drug discovery” (Eur J Med Chem, 2022).
# Legend:
# Leishmania amazonensis = experiment: Anti-promastigote activity against Leishmania amazonensis (IFLA/BR/67/PH8) assessed as promastigote growth inhibition incubated for 72 hrs by microscopic analysis; type: functional, organism-based; details: Leishmania amazonensis, IFLA/BR/67/PH8, 72 h
# NCI-H1299 = experiment: Cytotoxicity against human NCI-H1299 cells assessed as cell growth inhibition incubated for 48 hrs by SRB assay; type: functional, cell-based; details: NCI-H1299, 48 h
# MCF7 = experiment: Cytotoxicity against human MCF7 cells assessed as cell growth inhibition incubated for 48 hrs by MTT assay; type: functional, cell-based; details: MCF7, 48 h
# HepG2 = experiment: Cytotoxicity against human HepG2 cells assessed as cell growth inhibition incubated for 48 hrs by MTT assay; type: functional, cell-based; details: Homo sapiens, HepG2, 48 h
# NCI-H460 = experiment: Antiproliferative activity against human NCI-H460 cells assessed as cell growth inhibition by MTT assay
# [1] = Antiproliferative activity against human U-87 MG cells assessed as cell growth inhibition by MTT assay; type: functional, cell-based, U-87MG ATCC
# A549 = experiment: cells; details: Homo sapiens
# Description: Antiproliferative activity against human A549 cells assessed as cell growth inhibition by MTT assay
# SMMC-7721 = experiment: Antiproliferative activity against human SMMC-7721 cells assessed as cell growth inhibition by MTT assay
# MKN-45 = experiment: Antiproliferative activity against human MKN-45 cells assessed as cell growth inhibition by MTT assay
# HT-29 = experiment: cells; details: Homo sapiens
# Description: Antiproliferative activity against human HT-29 cells assessed as cell growth inhibition by MTT assay
# Staphylococcus aureus [2] = experiment: Antibacterial activity against Staphylococcus aureus NCIM 2010 assessed as bacterial growth inhibition incubated for 8 hrs by absorbance based assay; type: functional
# Bacillus subtilis [3] = experiment: Antibacterial activity against Bacillus subtilis NCIM 2079 assessed as reduction in bacterial growth incubated for 8 hrs by absorbance based assay; type: functional, organism-based; details: NCIM 2079, 8 h
# Escherichia coli = experiment: Antibacterial activity against Escherichia coli NCIM 2688 assessed as bacterial growth inhibition incubated for 8 hrs by absorbance based assay; type: functional
# Staphylococcus aureus [4] = experiment: Antibacterial activity against Staphylococcus aureus NCIM 2010 assessed as reduction in bacterial growth incubated for 8 hrs by absorbance based assay; type: functional, organism-based; details: NCIM 2010, 8 h
# Bacillus subtilis [5] = experiment: Antibacterial activity against Bacillus subtilis NCIM 2079 assessed as bacterial growth inhibition incubated for 8 hrs by absorbance based assay; type: functional
# Pseudomonas aeruginosa = experiment: Antibacterial activity against Pseudomonas aeruginosa NCIM 2036 assessed as bacterial growth inhibition incubated for 8 hrs by absorbance based assay; type: functional
# [6] = test system: Mycobacterium tuberculosis; experiment: Antimycobacterial activity against Mycobacterium tuberculosis H37Ra incubated for 8 to 12 days by XTT reduction menadione assay; type: functional; details: time 8-12 day
# [7] = Inhibition of CaCC (unknown origin) current potentiation; parameters: species or system Homo sapiens
# Epidermophyton floccosum = experiment: Antifungal activity against Epidermophyton floccosum 6999 assessed as fungal growth inhibition by spectrophotometry; type: functional
# Trichophyton rubrum = experiment: Antifungal activity against Trichophyton rubrum 6753 assessed as fungal growth inhibition by spectrophotometry; type: functional
compound,measurement,setting,value
COc1ccc2nc3cc(Cl)ccc3c(Nc3sc4c(c3C#N)CCCCCC4)c2c1,EC50,Leishmania amazonensis,69 µM
COc1ccc2nc3cc(Cl)ccc3c(Nc3sc4c(c3C(N)=O)CCCC4)c2c1,EC50,Leishmania amazonensis,31.8 µM
N#Cc1c(NC(=O)CNc2n[nH]c3ncccc23)sc2c1CCCC2,IC50,NCI-H1299,0.0125 µM
CC(=O)Nc1sc(C(C)=O)c(Nc2ccc(C(C)=O)cc2)c1C#N,IC50,MCF7,64.6 µM
same,IC50,HepG2,66.2 µM
N#Cc1c(N)sc(C(=O)Nc2ccccc2)c1-c1ccccc1,IC50,NCI-H460,9.62 µM
same,IC50,[1],8.93 µM
same,IC50,A549,8.28 µM
same,IC50,SMMC-7721,5.09 µM
same,IC50,MKN-45,7.09 µM
same,IC50,HT-29,8.39 µM
N#Cc1c(NC(=O)CN/N=C/c2cccc([N+](=O)[O-])c2)sc2c1CCCC2,IC50,NCI-H1299,18.5 µM
CCOC(=O)c1c(N)sc(C(=O)Nc2ccccc2)c1-c1ccccc1,IC50,NCI-H460,8.59 µM
same,IC50,[1],7.42 µM
same,IC50,A549,6.8 µM
same,IC50,SMMC-7721,8.58 µM
same,IC50,MKN-45,8.09 µM
same,IC50,HT-29,7.49 µM
N#CCC(=O)Nc1sc(C(=O)Nc2ccccc2)c(-c2ccccc2)c1C#N,IC50,NCI-H460,8.06 µM
same,IC50,[1],6.28 µM
same,IC50,A549,7.59 µM
same,IC50,SMMC-7721,7.93 µM
same,IC50,MKN-45,9.14 µM
same,IC50,HT-29,6.59 µM
COc1ccc2nc3cc(Cl)ccc3c(Nc3sc4c(c3C#N)CCCCC4)c2c1,EC50,Leishmania amazonensis,32.3 µM
CCOC(=O)c1c(NC(=O)CC#N)sc(C(=O)Nc2ccccc2)c1-c1ccccc1,IC50,NCI-H460,0.49 µM
same,IC50,[1],0.62 µM
same,IC50,A549,0.32 µM
same,IC50,SMMC-7721,0.53 µM
same,IC50,MKN-45,0.59 µM
same,IC50,HT-29,0.63 µM
CC1(C)S[C@@H]2[C@H](NC(=O)[C@H](N)c3ccc(O)cc3)C(=O)N2[C@H]1C(=O)O [AMOXICILLIN],MIC,Staphylococcus aureus [2],0.29 µg/mL
same,EC50,Bacillus subtilis [3],0.15 µM
same,MIC,Escherichia coli,0.32 µg/mL
same,EC50,Staphylococcus aureus [4],0.15 µM
same,MIC,Bacillus subtilis [5],0.32 µg/mL
same,MIC,Pseudomonas aeruginosa,> 10 µg/mL
COC(=O)c1ccsc1NC(=O)N[C@@H](C(=O)N[C@@H]1C(=O)N2[C@@H]1SC(C)(C)[C@@H]2C(=O)O)c1ccccc1,MIC,Staphylococcus aureus [2],0.28 µg/mL
same,EC50,Bacillus subtilis [3],0.21 µM
same,MIC,Escherichia coli,> 10 µg/mL
same,EC50,Staphylococcus aureus [4],0.16 µM
same,MIC,Bacillus subtilis [5],0.55 µg/mL
same,MIC,Pseudomonas aeruginosa,> 10 µg/mL
same,MIC,[6],> 50 µg/mL
CC(C)(C)C1CCc2c(sc(NC(=O)C3CCCO3)c2C(=O)O)C1 (stereo not drawn),IC50,[7],1.7 µM
COC(=O)c1c(N)sc2c1CCC(C(C)(C)C)C2 (stereo not drawn),IC50,[7],4.6 µM
N#Cc1ccsc1/N=C/c1cccc([N+](=O)[O-])c1,MIC,Epidermophyton floccosum,64 µg/mL
same,MIC,Trichophyton rubrum,128 µg/mL
COC(=O)c1c(NC(=O)Cn2cc(CNC34CC5CC(CC(C5)C3)C4)nn2)sc2c1CCC(C)C2 (stereo not drawn),IC50,[7],5.4 µM
COC(=O)c1c(NC(=O)N[C@@H](C(=O)N[C@@H]2C(=O)N3[C@@H]2SC(C)(C)[C@@H]3C(=O)O)c2ccc(O)cc2)sc2c1CCCCCC2,MIC,Staphylococcus aureus [2],0.28 µg/mL
same,EC50,Bacillus subtilis [3],0.25 µM
same,MIC,Escherichia coli,> 10 µg/mL
same,EC50,Staphylococcus aureus [4],0.16 µM
same,MIC,Bacillus subtilis [5],2.57 µg/mL
same,MIC,Pseudomonas aeruginosa,> 10 µg/mL
same,MIC,[6],> 50 µg/mL
N#Cc1c(NC(=O)CNc2onc3ncccc23)sc2c1CCCC2,IC50,NCI-H1299,18.4 µM
CC(=O)c1ccc(Nc2c(C(=O)/C=C/c3ccccc3)sc(N)c2C#N)cc1,IC50,MCF7,67.5 µM
same,IC50,HepG2,73.6 µM
CC(=O)c1ccc(Nc2c(C(C)=O)sc(NC(=O)CC#N)c2C#N)cc1,IC50,MCF7,41.4 µM
same,IC50,HepG2,56.1 µM
COC(=O)c1ccsc1NC(=O)N[C@@H](C(=O)N[C@@H]1C(=O)N2[C@@H]1SC(C)(C)[C@@H]2C(=O)O)c1ccc(O)cc1,MIC,Staphylococcus aureus [2],0.29 µg/mL
same,EC50,Bacillus subtilis [3],0.15 µM
same,MIC,Escherichia coli,> 10 µg/mL
same,EC50,Staphylococcus aureus [4],0.15 µM
same,MIC,Bacillus subtilis [5],0.32 µg/mL
same,MIC,Pseudomonas aeruginosa,> 10 µg/mL
same,MIC,[6],> 50 µg/mL
